pIC50: −log10 of the molar value. Bounds are passed on as bounds.

The target in this assay is T1, human C1 r (Homo sapiens, UniProt P00736).
T1 construct: purchased Enzyme Research Labs (South Bend, Ind.)
T1 sequence (P00736 464-705 limits assumed): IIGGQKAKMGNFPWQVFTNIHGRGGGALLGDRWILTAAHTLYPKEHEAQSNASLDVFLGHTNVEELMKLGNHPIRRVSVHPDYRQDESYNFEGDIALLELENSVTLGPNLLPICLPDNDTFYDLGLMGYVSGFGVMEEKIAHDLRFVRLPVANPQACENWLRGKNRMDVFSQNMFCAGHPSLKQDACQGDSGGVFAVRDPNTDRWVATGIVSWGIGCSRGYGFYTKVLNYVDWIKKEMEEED
T1 sequence (P00736 18-463 partner limits assumed): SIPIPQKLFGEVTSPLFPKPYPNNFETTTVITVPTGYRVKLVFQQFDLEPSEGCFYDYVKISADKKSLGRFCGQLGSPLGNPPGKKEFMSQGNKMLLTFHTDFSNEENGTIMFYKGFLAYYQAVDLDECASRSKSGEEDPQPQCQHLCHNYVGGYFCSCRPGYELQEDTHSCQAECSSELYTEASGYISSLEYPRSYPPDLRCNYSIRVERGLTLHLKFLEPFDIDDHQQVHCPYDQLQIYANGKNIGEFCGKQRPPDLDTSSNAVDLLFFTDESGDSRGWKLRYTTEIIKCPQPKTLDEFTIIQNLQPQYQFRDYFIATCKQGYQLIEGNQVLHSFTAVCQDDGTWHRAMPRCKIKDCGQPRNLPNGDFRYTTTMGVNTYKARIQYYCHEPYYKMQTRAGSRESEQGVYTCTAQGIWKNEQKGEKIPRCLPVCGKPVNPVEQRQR
Put plainly: Assay of C1r Enzyme Activity (Assay 1), thioester substrate z-Gly-Arg-S-Bzl with DTNB. In kind it is biochemical. The conditions noted are these: Table 1 and text, pH 7.4-7.5, read-out: Inhibition of Clr Assay 1 (IC50). Here is the method:
Assay of C1 r Enzyme Activity Purified human C1 r was obtained commercially from Enzyme Research Labs (South Bend, Ind.). The enzyme is stored frozen at -70° C. at a stock concentration of about 1 mg/mL of protein until the enzyme is needed. […] The thioester substrate, z-Gly-Arg-S-Bzl, for C1 r assays (McRae, et al., 1981) is obtained commercially from Enzyme System Products (Livermore, Calif.). All other reagents were obtained from Sigma Chemical Co. (St. Louis, Mo.). The procedure for assaying the inhibition of C1 r enzyme activity is as follows. A 5 mM stock solution of z-Gly-Arg-S-Bzl is made in dimethylsulfoxide (DMSO) and stored at room temperature until needed. The stock substrate solution is diluted 3 parts stock substrate solution to 7 parts distilled water to make a 1.5 mM working substrate solution. The working substrate solution is made just before it is needed. A fresh solution of 20 μg/mL of C1 r enzyme is made in 10 mM Tris buffer, pH 7.4. The enzyme solution can be stored on ice for up to an hour. […] Compounds at concentrations ranging from 1 mM to 0.010 mM are dissolved in DMSO and a 10 μL aliquot of each concentration is deposited in a well of a 96-well microtiter plate. Fifty microliters of the working substrate solution and 50 μL of DTNB solution are then dispensed in the wells of the microtiter plate, followed by the immediate addition of 50 μL of the C1 r enzyme solution to start the assay. The assay produces a yellow color that is read in the kinetic mode using a Molecular Devices Thermomax microplate reader set to a wavelength of 405 nm. The assay background is followed by monitoring wells that contain substrate, buffer, and DTNB solutions but no enzyme. All assays are performed in triplicate at each inhibitor concentration tested. Values for each inhibitor concentration are reported as optical density (OD)/minute.
Consider `O=c1oc(Nc2ccccc2Cl)nc2ccccc12` [Example 2, 2-(2-Chloro-phenylamino)-benzo[d][1,3]oxazin-4-one], for which the pIC50 was 5.19. For the molecule `O=c1oc(Nc2ccccc2Br)nc2ccccc12` [Example 3, 2-(2-Bromo-phenylamino)-benzo[d][1,3]oxazin-4-one], the pIC50 was 5.29. As for `O=c1oc(Nc2ccccc2I)nc2ccccc12` [Example 4, 2-(2-Iodo-phenylamino)-benzo[d][1,3]oxazin-4-one], the figure is 5.46; as for `O=c1oc(Nc2cccc(I)c2)nc2ccccc12` [Example 5, 2-(3-Iodo-phenylamino)-benzo[d][1,3]oxazin-4-one], less than 4.17; as for `O=c1oc(Nc2ccc(I)cc2)nc2ccccc12` [Example 6, 2-(4-Iodo-phenylamino)-benzo[d][1,3]oxazin-4-one], less than 4.17. The result for `O=c1oc(Nc2c(Cl)cccc2Cl)nc2ccccc12` [Example 7, 2-(2,6-Dichloro-phenylamino)-benzo[d][1,3]oxazin-4-one] reads 5.89; that for `CSc1ccccc1Nc1nc2ccccc2c(=O)o1` [Example 8, 2-(2-Methylsulfanyl-phenylamino)-benzo[d][1,3]oxazin-4-one], less than 4.18; that for `O=c1oc(Nc2ccccc2OC(F)(F)F)nc2ccccc12` [Example 9, 2-(2-Trifluoromethoxy-phenylamino)-benzo[d][1,3]oxazin-4-one], 5.40. The result for `CN(c1nc2ccccc2c(=O)o1)c1ccccc1I` [Example 10, 2-[Methyl-(2-iodo-phenyl)-amino]benzo[d][1,3]oxazin-4-one] reads 5.85. As to `CCN(c1nc2ccccc2c(=O)o1)c1ccccc1I` [Example 11, 2-[Ethyl-(2-iodo-phenyl)-amino]-benzo[d][1,3]oxazin-4-one], the pIC50 was less than 4.18. As for `CN(C(=O)c1ccccc1I)c1nc2ccccc2c(=O)o1` [Example 12, 2-Iodo-N-methyl-N-(4-oxo-4H-benzo[d][1,3]oxazin-2-yl)-benzamide], the figure is 5.51; as for `CN(C(=O)c1c(Cl)cccc1Cl)c1nc2ccccc2c(=O)o1` [Example 13, 2,6-Dichloro-N-methyl-N-(4-oxo-4H-benzo[d][1,3]oxazin-2-yl)-benzamide], 5.10. The result for `CN(C(=O)c1ccccc1Br)c1nc2ccccc2c(=O)o1` [Example 14, 2-Bromo-N-methyl-N-(4-oxo-4H-benzo[d][1,3]oxazin-2-yl)-benzamide] reads 5.40; that for `CSc1ccccc1C(=O)N(C)c1nc2ccccc2c(=O)o1` [Example 15, N-Methyl-2-methylsulfanyl-N-(4-oxo-4H-benzo[d][1,3]oxazin-2-yl)-benzamide], 6.10; that for `CN(C(=O)c1ccccc1C(F)(F)F)c1nc2ccccc2c(=O)o1` [Example 16, N-Methyl-N-(4-oxo-4H-benzo[d][1,3]oxazin-2-yl)-2-trifluoromethyl-benzamide], 5.82. `CN(C(=O)c1ccccc1)c1nc2ccccc2c(=O)o1` [Example 17, N-Methyl-N-(4-oxo-4H-benzo[d][1,3]oxazin-2-yl)benzamide]: the negative-log IC50 (pIC50) is 4.97. As for `CCN(C(=O)c1ccccc1I)c1nc2ccccc2c(=O)o1` [Example 18, N-Ethyl-2-iodo-N-(4-oxo-4H-benzo[d][1,3]oxazin-2-yl)-benzamide], the figure is 5.08; as for `CN(C)c1ccc2c(=O)oc(Nc3ccccc3I)nc2c1` [Example 19, 7-Dimethylamino-2-(2-iodo-phenylamino)-benzo[d][1,3]oxazin-4-one], less than 4.18; as for `O=c1oc(Nc2ccccc2I)nc2cc3ccccc3cc12` [Example 20, 2-(2-Iodo-phenylamino)-naphtho[2,3-d][1,3]oxazin-4-one], 5.85. As for `O=c1oc(Nc2ccccc2I)nc2cccc(Cl)c12` [Example 21, 5-Chloro-2-(2-iodo-phenylamino)-benzo[d][1,3]oxazin-4-one], the figure is 4.84; as for `O=c1oc(Nc2ccccc2I)nc2ccc(Cl)cc12` [Example 22, 6-Chloro-2-(2-iodo-phenylamino)-benzo[d][1,3]oxazin-4-one], 5.40. The result for `O=c1oc(Nc2ccccc2I)nc2cc(Cl)ccc12` [Example 23, 7-Chloro-2-(2-iodo-phenylamino)-benzo[d][1,3]oxazin-4-one] reads 6.15; that for `COc1ccc2nc(Nc3ccccc3I)oc(=O)c2c1` [Example 24, 2-(2-Iodo-phenylamino)-6-methoxy-benzo[d][1,3]oxazin-4-one], 4.26; that for `COc1ccc2c(=O)oc(Nc3ccccc3I)nc2c1` [Example 25, 2-(2-Iodo-phenylamino)-7-methoxy-benzo[d][1,3]oxazin-4-one], less than 4.18. For `Cc1cccc2nc(Nc3ccccc3I)oc(=O)c12` [Example 26, 2-(2-Iodo-phenylamino)-5-methyl-benzo[d][1,3]oxazin-4-one], the pIC50 was less than 4.18. As to `Cc1ccc2nc(Nc3ccccc3I)oc(=O)c2c1` [Example 27, 2-(2-Iodo-phenylamino)-6-methyl-benzo[d][1,3]oxazin-4-one], the pIC50 was less than 4.18. As for `Cc1ccc2c(=O)oc(Nc3ccccc3I)nc2c1` [Example 28, 2-(2-Iodo-phenylamino)-7-methyl-benzo[d][1,3]oxazin-4-one], the figure is 6.10; as for `O=c1oc(Nc2ccccc2I)nc2cc(Cl)c(Cl)cc12` [Example 29, 6,7-Dichloro-2-(2-iodo-phenylamino)-benzo[d][1,3]oxazin-4-one], 6.30; as for `O=c1oc(Nc2ccccc2I)nc2cc([N+](=O)[O-])ccc12` [Example 30, 2-(2-Iodo-phenylamino)-7-nitro-benzo[d][1,3]oxazin-4-one], 6.12. For the molecule `O=c1oc(Nc2ccccc2I)nc2cc(C(F)(F)F)ccc12` [Example 31, 2-(2-Iodo-phenylamino)-7-trifluoromethylbenzo[d][1,3]oxazin-4-one], the pIC50 was 6.40. As for `CN(C(=O)c1ccsc1)c1nc2ccccc2c(=O)o1` [Example 32, Thiophene-3-carboxylic acid methyl-(4-oxo-4H-benzo[d][1,3]oxazin-2-yl)-amide], the figure is 5.22; as for `CN(C(=O)c1ccccc1F)c1nc2ccccc2c(=O)o1` [Example 33, 2-Fluoro-N-methyl-N-(4-oxo-4H-benzo[d][1,3]oxazin-2-yl)-benzamide], 4.22; as for `CN(C(=O)c1ccccc1Cl)c1nc2ccccc2c(=O)o1` [Example 34, 2-Chloro-N-methyl-N-(4-oxo-4H-benzo[d][1,3]oxazin-2-yl)-benzamide], 4.80. The result for `COc1ccccc1C(=O)N(C)c1nc2ccccc2c(=O)o1` [Example 35, 2-Methoxy-N-methyl-N-(4-oxo-4H-benzo[d][1,3]oxazin-2-yl)-benzamide] reads less than 4.18; that for `Cc1ccccc1C(=O)N(C)c1nc2ccccc2c(=O)o1` [Example 36, 2,N-Dimethyl-N-(4-oxo-4H-benzo[d][1,3]oxazin-2-yl)-benzamide], less than 4.17; that for `CN(C(=O)c1cccc(I)c1)c1nc2ccccc2c(=O)o1` [Example 37, 3-Iodo-N-methyl-N-(4-oxo-4H-benzo[d][1,3]oxazin-2-yl)-benzamide], 4.70. In the case of `CN(C(=O)c1ccc(I)cc1)c1nc2ccccc2c(=O)o1` [Example 38, 4-Iodo-N-methyl-N-(4-oxo-4H-benzo[d][1,3]oxazin-2-yl)-benzamide], the pIC50 was 4.48. With `Cc1cccc2nc(N(C)C(=O)c3ccccc3I)oc(=O)c12` [Example 39, 2-Iodo-N-methyl-N-(5-methyl-4-oxo-4H-benzo[d][1,3]oxazin-2-yl)-benzamide], the pIC50 was less than 4.18. The result for `Cc1ccc2nc(N(C)C(=O)c3ccccc3I)oc(=O)c2c1` [Example 40, 2-Iodo-N-methyl-N-(6-methyl-4-oxo-4H-benzo[d][1,3]oxazin-2-yl)-benzamide] reads 5.89.

Values taken from patent publication US5652237A, “2-substituted-4H-3, 1-benzoxazin-4-ones and benzthiazin-4-ones as inhibitors of complement C1r protease for the treatment of inflammatory processes” (Warner-Lambert Company, priority 1995, dated 1997).
